Reference: publication PMC3589648, “2D- and 3D-QSAR studies of a series of benzopyranes and benzopyrano[3,4b][1,4]-oxazines as inhibitors of the multidrug transporter P-glycoprotein” (Journal of Computer-Aided Molecular Design, 2013)
Read-outs that look alike come from different tables or passages of the source.

Molecular target: T1, P-glycoprotein (P-gp) (Homo sapiens, UniProt P08183)
T1 construct: The resistant CEM/vcr1000 line was obtained by stepwise selection in vincristine containing medium; endogenous in cells; host or cells: CCRF-CEM vcr1000 (CEM/vcr1000), a human T-lymphoblast line made multidrug resistant by vincristine selection
T1 sequence (P08183 whole entry): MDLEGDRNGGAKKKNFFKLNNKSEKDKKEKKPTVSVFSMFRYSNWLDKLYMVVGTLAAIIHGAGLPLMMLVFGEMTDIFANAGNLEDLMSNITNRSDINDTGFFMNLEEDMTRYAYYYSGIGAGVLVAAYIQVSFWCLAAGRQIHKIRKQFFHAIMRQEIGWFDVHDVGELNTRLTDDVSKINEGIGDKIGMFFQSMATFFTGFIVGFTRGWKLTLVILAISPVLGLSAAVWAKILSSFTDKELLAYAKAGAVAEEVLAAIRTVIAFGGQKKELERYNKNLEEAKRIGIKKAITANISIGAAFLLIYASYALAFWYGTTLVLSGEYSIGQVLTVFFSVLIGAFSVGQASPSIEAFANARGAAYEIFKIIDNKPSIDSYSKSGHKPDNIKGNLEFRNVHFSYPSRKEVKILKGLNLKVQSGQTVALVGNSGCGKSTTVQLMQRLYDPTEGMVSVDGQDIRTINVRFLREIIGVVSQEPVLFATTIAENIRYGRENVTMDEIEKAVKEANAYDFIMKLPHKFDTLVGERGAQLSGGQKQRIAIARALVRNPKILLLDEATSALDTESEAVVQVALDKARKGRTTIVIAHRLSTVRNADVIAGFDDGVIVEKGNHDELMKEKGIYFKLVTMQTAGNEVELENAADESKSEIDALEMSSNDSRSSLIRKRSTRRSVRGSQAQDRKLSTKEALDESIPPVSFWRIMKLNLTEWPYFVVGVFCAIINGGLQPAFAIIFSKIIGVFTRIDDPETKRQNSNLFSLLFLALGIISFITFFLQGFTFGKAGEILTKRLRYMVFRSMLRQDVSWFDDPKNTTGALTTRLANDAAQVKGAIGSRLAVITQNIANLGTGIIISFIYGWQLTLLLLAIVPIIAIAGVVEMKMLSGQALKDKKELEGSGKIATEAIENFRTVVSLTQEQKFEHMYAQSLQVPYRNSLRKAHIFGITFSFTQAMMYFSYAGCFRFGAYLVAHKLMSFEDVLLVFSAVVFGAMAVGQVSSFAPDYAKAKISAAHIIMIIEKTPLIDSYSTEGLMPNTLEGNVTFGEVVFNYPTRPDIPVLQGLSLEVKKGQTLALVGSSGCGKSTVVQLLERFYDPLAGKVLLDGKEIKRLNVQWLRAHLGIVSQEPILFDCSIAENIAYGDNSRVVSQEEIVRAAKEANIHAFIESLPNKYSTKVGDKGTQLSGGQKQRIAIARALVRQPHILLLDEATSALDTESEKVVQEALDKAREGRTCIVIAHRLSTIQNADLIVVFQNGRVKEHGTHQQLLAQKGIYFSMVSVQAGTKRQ
Test: Daunorubicin efflux inhibition in multidrug resistant CCRF-CEM vcr1000 cells
Format: cell-based
Details: for factor more active than corresponding unsubstituted analogs 6a and 6b: N-methylated L-valine analogues versus secondary amines
Experimental: Biological activity of target compounds 5a–22b was assessed using the daunorubicin efflux protocol as described previously. Briefly, multidrug resistant CCRF-CEM vcr 1,000 cells were incubated with daunorubicin and the decrease in mean cellular fluorescence in dependence of time was measured in presence of various concentrations of the modulator. IC50 values were calculated from the concentration–response curve of efflux V max /K m versus concentration of the modulator. Thus, the effect of different modulators on the transport rate is measured in a direct functional assay. Values are given in Table 1 and are the mean of at least three independently performed experiments. Generally, inter experimental variation was below 20 %.
The human T-lymphoblast cell line CCRF-CEM and the multidrug resistant CEM/vcr1000 cell line were provided by V. Gekeler (Byk Gulden, Konstanz, Germany). The resistant CEM/vcr1000 line was obtained by stepwise selection in vincristine containing medium. Cells were kept under standard culture conditions (RPMI1640 medium supplemented with 10% fetal calf serum). P-gp-expressing resistant cell line was cultured in presence of 1000 ng/mL vincristine. One week prior to the experiments cells were transferred into medium without selective agents or antibiotics. Briefly, cells were pelleted, the supernatant was removed by aspiration and cells were resuspended at a density of 1 x 10^6/ mL in PRMI1640 medium containing 3µmol/l daunomycin. Cell suspensions were incubated at 37°C for 30 min. After this time a steady state of daunorubicin accumulation was reached. Tubes were chilled on ice and cells were pelleted at 500 x g. Cells were washed once in RPMI1640 medium to remove extracellular daunorubicin. […] Generally, 8 serial dilutions were tested for each modulator. After 1, 2, 3 and 4 min aliquots of the incubation mixture were drawn and pipetted into 4 volumes of ice cold stop solution (RPMI1640 medium containing verapamil at a final concentration of 100 µM). Parental CCRF-CEM cells were used to correct for simple membrane diffusion, which was less than 3% of the efflux rates observed in resistant cells. Samples drawn at the respective time points were kept in an ice water bath and measured within one hour on a Becton Dickinson FACS Calibur (Becton Dickinson, Heidelberg, Germany) flow cytometer as described. Dose response curves were fitted to the data points using non-linear least squares and IC50 values were calculated as described by Chiba et al. […] A CV of below 20% was obtained in all determinations.

[1] = SM Table 2, logarithm of the measured IC50 (μM) of Table 1, read-out: Exp. LogIC50 (converted)
[2] = inhibition of P-gp mediated daunorubicin efflux, CCRF-CEM vcr1000 cells, mean of at least three experiments, read-out: IC50 μM ± SD
[3] = SM Table 2, logarithm of the measured IC50 (μM) of Table 1

Row | SMILES | IC50 [1] | IC50 [2] | Exp. LogIC50 [3] | factor more active than corresponding unsubstituted analogs 6a and 6b | more active than diastereomer 14b (ratio of P-gp inhibitory potency (IC50), 14a versus 14b) | factor less active than diastereomeric 4aR,10bS analogue 12b (ratio of P-gp inhibitory potency (IC50), 12a versus 12b)
1 | CC(C)[C@H]1C(=O)O[C@H]2[C@@H](c3cc(C#N)ccc3OC2(C)C)N1C [16a] | 47.9 µM | 47.51 ± 0.4 µM | – | – | – | –
2 | CC(C)[C@@H](N[C@@H]1c2cc(C#N)ccc2OC(C)(C)[C@H]1O)C(=O)OC(C)(C)C [10a] | – | 4.62 ± 0.31 µM | -0.66 | – | – | –
3 | CC(C)[C@@H](N[C@H]1c2cc(C#N)ccc2OC(C)(C)[C@@H]1O)C(=O)OC(C)(C)C [10b] | – | 1.34 ± 0.08 µM | -0.13 | – | – | –
4 | CC(C)[C@@H](CCl)N(C)[C@@H]1c2cc(C#N)ccc2OC(C)(C)[C@H]1O [22a] | – | 35.22 ± 0.02 µM | -1.55 | – | – | –
5 | CC1(C)Oc2ccc(C#N)cc2[C@@H]2N[C@@H](Cc3ccccc3)C(=O)O[C@H]21 [14b] | – | 259.78 ± 0.06 µM | -2.41 | – | – | –
6 | C[C@H](N[C@H]1c2cc(C#N)ccc2OC(C)(C)[C@@H]1O)C(=O)OC(C)(C)C [5b] | – | 14.55 ± 0.05 µM | -1.16 | – | – | –
7 | CC(C)[C@H](C(=O)OC(C)(C)C)N(C)[C@H]1c2cc(C#N)ccc2OC(C)(C)[C@@H]1O [11b] | – | 1 ± 0.05 µM | 0.005 | – | – | –
8 | CC(C)[C@H]1N[C@H]2c3cc(C#N)ccc3OC(C)(C)[C@@H]2OC1=O [17b] | 9.55 µM | 9.63 ± 0.08 µM | – | – | – | –
9 | C[C@@H](C(=O)OC(C)(C)C)N(C)[C@@H]1c2cc(C#N)ccc2OC(C)(C)[C@H]1O [8a] | – | 3.96 ± 0.06 µM | -0.60 | – | – | –
10 | CC(C)[C@@H](C(=O)OC(C)(C)C)N(C)[C@H]1c2cc(C#N)ccc2OC(C)(C)[C@@H]1O [9b] | – | 1.35 ± 0.003 µM | -0.13 | 2 | – | –
11 | CC(C)[C@@H]1N[C@H]2c3cc(C#N)ccc3OC(C)(C)[C@@H]2OC1=O [13b] | – | 59.3 ± 0.6 µM | -1.77 | – | – | –
12 | CC(C)[C@@H](CO)N[C@H]1c2cc(C#N)ccc2OC(C)(C)[C@@H]1O [19b] | – | 102.6 ± 0.15 µM | -2.01 | – | – | –
13 | CC(C)[C@H](C(=O)OC(C)(C)C)N(C)[C@@H]1c2cc(C#N)ccc2OC(C)(C)[C@H]1O [11a] | – | 1.01 ± 0.02 µM | -0.004 | – | – | –
14 | CC(C)[C@H]1CO[C@H]2[C@H](N1)c1cc(C#N)ccc1OC2(C)C [21a, (2S,4aS,10bR)-2-isopropyl-5,5-dimethyl-1,4a,5,10b-tetrahydro-3H [1]benzopyrano[3,4-b][1,4]oxazine-9-carbonitril] | 49 µM | 48.8 ± 0.09 µM | – | – | – | –
15 | C[C@@H]1N[C@H]2c3cc(C#N)ccc3OC(C)(C)[C@@H]2OC1=O [12b] | – | 76.89 ± 0.06 µM | -1.88 | – | – | –
16 | CC(C)(C)OC(=O)[C@H](Cc1ccccc1)N[C@@H]1c2cc(C#N)ccc2OC(C)(C)[C@H]1O [7a] | – | 0.55 ± 0.02 µM | 0.26 | – | – | –
17 | CC(C)[C@@H](CO)N(C)[C@@H]1c2cc(C#N)ccc2OC(C)(C)[C@H]1O [20a] | – | 5.46 ± 0.24 µM | -0.74 | – | – | –
18 | CC(C)[C@H](N[C@@H]1c2cc(C#N)ccc2OC(C)(C)[C@H]1O)C(=O)OC(C)(C)C [6a] | – | 2.4 ± 0.03 µM | -0.38 | – | – | –

Row | SMILES | IC50 [1] | IC50 [2] | Exp. LogIC50 [3] | factor more active than corresponding unsubstituted analogs 6a and 6b | more active than diastereomer 14b (ratio of P-gp inhibitory potency (IC50), 14a versus 14b) | factor less active than diastereomeric 4aR,10bS analogue 12b (ratio of P-gp inhibitory potency (IC50), 12a versus 12b)
19 | CC1(C)Oc2ccc(C#N)cc2[C@H]2N[C@@H](Cc3ccccc3)C(=O)O[C@@H]21 [14a] | – | 2.68 ± 0.18 µM | -0.42 | – | two orders of magnitude more active | –
20 | CC(C)[C@H](N[C@H]1c2cc(C#N)ccc2OC(C)(C)[C@@H]1O)C(=O)OC(C)(C)C [6b] | – | 2.7 ± 0.02 µM | -0.43 | – | – | –
21 | CC(C)[C@@H](CO)N(C)[C@H]1c2cc(C#N)ccc2OC(C)(C)[C@@H]1O [20b] | – | 6.84 ± 0.15 µM | -0.83 | – | – | –
22 | CC(C)[C@@H](CO)N[C@@H]1c2cc(C#N)ccc2OC(C)(C)[C@H]1O [19a] | – | 54.05 ± 0.31 µM | -1.73 | – | – | –
23 | C[C@H](N[C@@H]1c2cc(C#N)ccc2OC(C)(C)[C@H]1O)C(=O)OC(C)(C)C [5a] | – | 29.85 ± 0.01 µM | -1.47 | – | – | –
24 | CC(C)[C@@H](C(=O)OC(C)(C)C)N(C)[C@@H]1c2cc(C#N)ccc2OC(C)(C)[C@H]1O [9a] | – | 0.96 ± 0.06 µM | 0.02 | 2 | – | –
25 | CC(C)[C@@H]1C(=O)O[C@@H]2[C@H](c3cc(C#N)ccc3OC2(C)C)N1C [18b] | 27.5 µM | 27.84 ± 0.02 µM | – | – | – | –
26 | CC(C)(C)OC(=O)[C@H](Cc1ccccc1)N[C@H]1c2cc(C#N)ccc2OC(C)(C)[C@@H]1O [7b] | – | 0.77 ± 0.04 µM | 0.11 | – | – | –
27 | C[C@@H](C(=O)OC(C)(C)C)N(C)[C@H]1c2cc(C#N)ccc2OC(C)(C)[C@@H]1O [8b] | – | 3.72 ± 0.03 µM | -0.57 | – | – | –
28 | CC(C)[C@H]1C(=O)O[C@@H]2[C@H](c3cc(C#N)ccc3OC2(C)C)N1C [16b] | 16.6 µM | 16.7 ± 0.2 µM | – | – | – | –
29 | CC(C)[C@@H]1N[C@@H]2c3cc(C#N)ccc3OC(C)(C)[C@H]2OC1=O [13a] | – | 15.3 ± 0.32 µM | -1.18 | – | – | –
30 | CC(C)[C@@H](CCl)N(C)[C@H]1c2cc(C#N)ccc2OC(C)(C)[C@@H]1O [22b] | – | 45.17 ± 0.05 µM | -1.65 | – | – | –
31 | C[C@@H]1N[C@@H]2c3cc(C#N)ccc3OC(C)(C)[C@H]2OC1=O [12a] | – | 1241.6 ± 0.04 µM | -3.09 | – | – | 15
32 | CC(C)[C@@H]1C(=O)O[C@H]2[C@@H](c3cc(C#N)ccc3OC2(C)C)N1C [18a] | 77.6 µM | 79.27 ± 0.05 µM | – | – | – | –
33 | C[C@H]1C(=O)O[C@H]2[C@@H](c3cc(C#N)ccc3OC2(C)C)N1C [15a] | – | 47.8 ± 0.91 µM | -1.68 | – | – | –
34 | C[C@H]1C(=O)O[C@@H]2[C@H](c3cc(C#N)ccc3OC2(C)C)N1C [15b] | – | 28.93 ± 0.15 µM | -1.46 | – | – | –
35 | CC(C)[C@H]1CO[C@@H]2[C@@H](N1)c1cc(C#N)ccc1OC2(C)C [21b] | 43.7 µM | 44 ± 0.03 µM | – | – | – | –
